Source: patent publication US5030624A, “R-diastereomer of an N^6 -[(2-hydroxypropyl)aryl]adenosine and its medicinal uses” (G. D. Searle & Co., priority 1988, dated 1991)
“Also recorded” adds a separate entry of the source.

What was measured:
[1] = test system: hypertensive models; conditions: Federation Proceedings 44:879 & 1643, 1985; cited from earlier work
[2] = test system: plasma renin activity (PRA); experiment: Change in plasma renin activity (PRA) in the bilateral renal artery ligated rat; format: in vivo, rat (Sprague-Dawley); conditions: 1 mg/kg I.V.; for prevention of PRA increases / inhibition of renin release (in words): 30 and 60 minutes; for CHANGE IN PRA: ^+ different from vehicle, p < .05
Experimental: Adenosine Al receptor stimulation will inhibit the release of renin from the kidney. A stimulus for the release of renin is renal ischemia. The ability of the compounds of the present invention to prevent an increase in PRA following renal ischemia was tested in rats with both renal arteries ligated. Sprague-Dawley rats were anesthetized with ether and the renal arteries were ligated. Three to five hours after anesthesia, arterial blood was sampled and compounds I and II were administered in polyethylene glycol at 1 mg/kg I.V. At 30 and 60 minutes after administration, arterial blood was sampled for PRA measurement by the method of Sealy, J. E. et al., Cardiovasc. Med. 2:1079, 1977.

[3] = test system: mice; experiment: Behavioral toxicity at various times in mice; format: in vivo; as to MOTOR DEPRESSION: key: +: toxic symptom observed; +*: toxic symptom observed; *2/7; as to PTOSIS: key: +: toxic symptom observed; +*: toxic symptom observed; *2/7; as to RESPIRATORY DEPRESSION: key: +: toxic symptom observed; +*: toxic symptom observed; *2/7; as to loss of righting reflex: key: +: toxic symptom observed; +*: toxic symptom observed; *2/7
Experimental: The mice had previously been trained to remain on a rotating rod. After dosing, the percent of mice unable to remain on the rotating rod was determined. […] The mice were also observed at various time intervals for behavioral signs of toxicity.

[4] = test system: adenosine Al receptor in the granular juxtaglomerular cells of the kidney; conditions: Federation Proceedings 44:879 & 1643, 1985; cited from earlier work
[5] = test system: mice; experiment: Ataxia on rotating rod in mice; format: in vivo; conditions: ip, 0.5 or 3 hours
Experimental: Adenosine analogs tend to produce sedation and central nervous system depression which have prevented their therapeutic utility. The compounds of the invention, at doses which lower arterial pressure in the SHR, show no evidence of CNS depression. The ataxia produced by compounds of the present invention was measured in mice by injecting the compounds IP at doses of 32, 56, or 75 mg/kg in an aqueous suspension, n=7 per dose. The mice had previously been trained to remain on a rotating rod. After dosing, the percent of mice unable to remain on the rotating rod was determined. […] The mice were also observed at various time intervals for behavioral signs of toxicity.

[6] = Solubility of the separated diastereomers; format: physicochemical; conditions: for solubility in MeOH (in words): S isomer and R isomer compared
[7] = test system: spontaneously hypertensive rats (SHR); experiment: Effects on MAP and HR in conscious spontaneously hypertensive rats (SHR), I.V. or intragastric; format: in vivo, rat
Experimental: The effects of compounds I and II were tested intravenously or intragastrically in conscious spontaneously hypertensive rats (SHR). The rats were anesthetized with ether and the left carotid artery and right jugular vein were cannulated with polyethylene tubing. The rats were allowed three to five hours recovery from anesthesia for the I.V. studies and 12 to 18 hours for the oral studies. Mean arterial pressure (MAP, in mm/Hg) and heart rate (HR, beats/min.) were measured from the artery; intravenous administration of compounds was performed by injection into the vein. Oral administration was performed by gastric intubation. Compounds were dissolved in DMSO for I.V. studies and injected in volumes of 100 μl/kg or less (N=5 per compound). Doses were 3 to 1,000 μg/kg. Compounds were dissolved in polyethylene glycol for oral administration and injected in volumes of 1 ml/kg at a dose of 20 mg/kg/day for three days (N=3 to 6 per compound).
The resting MAP and HR for the SHR ranged between 160-200 mm Hg and 330/350 b/min., respectively.
Thus, the effects of the three compounds on MAP and HR were indistinguishable both by I.V. and oral administration.

[8] = SHR, 20 mg/kg/day intragastric, day 2 of oral administration, N=3 to 6

Compound	prevention of PRA increases / inhibition of renin release (in words) [2]	toxicity (in words) ([3]; 18-20 hours, 75 mg/kg ip)	MOTOR DEPRESSION ([3]; 0.5 hr, 75 mg/kg ip)	PTOSIS ([3]; 0.5 hr, 75 mg/kg ip)	RESPIRATORY DEPRESSION ([3]; 0.5 hr, 75 mg/kg ip)	MOTOR DEPRESSION ([3]; 3 hr, 75 mg/kg ip)	PTOSIS ([3]; 3 hr, 75 mg/kg ip)	RESPIRATORY DEPRESSION ([3]; 3 hr, 75 mg/kg ip)	solubility in MeOH (in words) [6]	other results
OC[C@H]1O[C@@H](n2cnc3c(NCC(O)COc4cccc5ccccc45)ncnc32)[C@H](O)[C@@H]1O (mixture of isomers) [Compound I, N(6)-[2-hydroxy-3-(1-naphthyloxy)propyl]-adenosine]	prevented to the same extent	still producing several of the toxic symptoms	+	+	+	+	+	+		arterial blood pressure and heart rate (in words) [1]: reducing arterial blood pressure and heart rate in hypertensive models; FLACCIDITY, animals affected (footnote) ([3]; 18-20 hr, 75 mg/kg ip): 2/7; MOTOR DEPRESSION ([3]; 18-20 hr, 75 mg/kg ip): +; PTOSIS ([3]; 18-20 hr, 75 mg/kg ip): +; RESPIRATORY DEPRESSION ([3]; 18-20 hr, 75 mg/kg ip): +; toxicity (in words) ([3]; 3 hours, 75 mg/kg ip): flaccidity and loss of righting reflex; FLACCIDITY ([3]; 3 hr, 75 mg/kg ip): +; LOSS OF RIGHTING REFLEX ([3]; 3 hr, 75 mg/kg ip): +; binding to the adenosine Al receptor, inhibition of renin release (in words) [4]: binds to the adenosine Al receptor in the granular juxtaglomerular cells of the kidney to inhibit release of renin into the plasma
OC[C@H]1O[C@@H](n2cnc3c(NC[C@@H](O)COc4cccc5ccccc45)ncnc32)[C@H](O)[C@@H]1O [Compound II, N^6-[2R-hydroxy-3-(1-naphthalenyloxy)propyl]-adenosine]	prevented to the same extent	no toxicity was observed	+	+	+	+	+	+	more soluble in MeOH	CHANGE IN PRA ([2]; 30 minutes after dosing): -6.6 ngAI/ml/hr; CHANGE IN PRA ([2]; 60 minutes after dosing): -6.3 ngAI/ml/hr; ataxia / motor toxicity (in words) [5]: less ataxia at 0.5 or 3 hours as compared to compound I; also recorded: less motor toxicity than compound I; solubility (in words) ([6]; R diastereomer, solvent not stated): different solubility; ED (HR decrease by 100 b/min) ([7]; Rattus norvegicus, iv, conscious SHR, I.V. in DMSO, N=5 per compound, read-out: IV DOSE TO DECREASE HR by 100 b/min): 0.031 ± 0.0014 mg/kg; ED (MAP decrease by 40 mmHg) ([7]; Rattus norvegicus, iv, conscious SHR, I.V. in DMSO, N=5 per compound, read-out: IV DOSE TO DECREASE MAP by 40 mmHg): 0.033 ± 0.0012 mg/kg; MAXIMUM DECREASE AT 20 MG/KG ig: HR [7, 8]: 177 ± 19 b/min; MAXIMUM DECREASE AT 20 MG/KG ig: MAP [7, 8]: 50 ± 14 mmHg; overall toxicity compared with compound I (in words) ([3]; mice, ip, ataxia and behavioral toxicity): substantially less toxic than compound I; also recorded: unexpectedly less toxic than compound I, both with regard to ataxia and behavioral toxicity; also recorded: less central nervous system toxicity than the racemic mixture
OC[C@H]1O[C@@H](n2cnc3c(NC[C@H](O)COc4cccc5ccccc45)ncnc32)[C@H](O)[C@@H]1O [S isomer]									less soluble in MeOH	
